{"source": "patent US7776868B2", "about": "“Substituted bicyclic and tricyclic thieno[2,3-d]pyrimidines as A2A adenosine receptor antagonists” (Gilead Palo Alto, Inc., priority 2006, dated 2010)", "data": [{"target": "A2A adenosine receptor (UniProt P29274)", "assay": "A2A radioligand competitive binding assay (3H-MSX-2 displacement)", "parameters": "species or system human", "conditions": "competitive binding vs 2 nM 3H-MSX-2, 15 ug A2A membrane, 23° C., 2 hours", "excerpt": "A tritiated adenosine A2A antagonist, 3-(3-hydroxypropyl)-7-methyl-8-(m-methoxystyryl)-1-propargylxanthine, (3H-MSX-2, specific activity: 80 Ci/mmol), was purchased from American Radiolabeled Chemicals, Inc (St. Louis, Mo.). A tritiated adenosine A1 antagonist, 1,3-Dipropyl-8-cyclopentylxanthine ([^3H]DPCPX, specific activity: 120 Ci/mmol) was purchased from Perkin Elmer (Boston, Mass.). A tritiated adenosine A2B antagonist, 4-(2-[7-amino-2-(2-furyl) [1,2,4]triazolo[2,3-a][1,3,5]triazin-5-ylamino]ethyl)phenol ([^3H]ZM241385 specific activity: 27.4 Ci/mmol) was purchased from American Radiolabeled Chemicals, Inc (St. Louis, Mo.). Adenosine Deaminase (ADA) was purchased from Roche Molecular Biochemicals (Nutley, N.J.). GTP was purchased from Sigma. Concentrated stock solution (10 mM) of compounds was dissolved in dimethylsulfoxide (DMSO), stored at −20° C., and diluted in Tris-EDTA buffer (50 mM Tris and 1 mM EDTA, 10 mM MgCl2, pH 7.4) for use in experiments. The final content of dimethylsulfoxide in Tris-EDTA buffer during experiments was not more than 1%. Male Sprague Dawley rats, weighted 250-400 g, 8-10 weeks old, were purchased from Charles River Labs (Wilmington, Mass.).\nHEK293 (Human Embryonic Kidney 293) cells stably expressing human A2A adenosine receptor or human A2B adenosine receptor were maintained in DMEM supplemented with 10% fetal bovine serum, 2 mM L-glutamine, 100 IU/ml penicillin, 50 μg/ml streptomycin and 2 μg/ml puromycin. CHO (Chinese Hamster Ovary) cells stably expressing human A1 adenosine receptor or human A3 adenosine receptor were maintained in F12K medium supplemented with 10% fetal bovine serum, 2 mM L-glutamine, 100 IU penicillin, 50 μg/ml streptomycin and 8 μg/ml puromycin. PC12 (rat pheochromocytoma) cells were cultured in F12K medium supplemented with 10% horse serum and 2.5% fetal bovine serum, 2 mM L-glutamine, 100 IU/ml penicillin, and 50 μg/ml streptomycin. All cells were maintained at 37° C. in a humidified 5% CO2/95% air incubator and recultivated 2 times per week.\nCultured cells in 150 mm^2 dishes were washed once with PBS, detached by scrapping, collected with buffer A (10 mM HEPES, 10 mM EDTA, pH 7.4) containing protease inhibitor cocktail. Cells were then homogenized by a handheld homogenizer at a speed of 4.5 for 1 min. The homogenate was centrifuged by a Beckman ultracentrifuge at a speed of 29,000×g for 15 min. The pellets were resuspended in buffer HE (10 mM HEPES, 1 mM EDTA, pH 7.4, with protease inhibitor cocktail), centrifuged again at 29,000×g for 15 min. The crude membrane was resuspended using buffer HE, and protein concentration was measured by the method of Lowery with BSA as standard. Similar procedures were used for membrane preparation for fresh rat tissues. All experimental procedures were done at 4° C. Membranes were aliquot and kept at −80° C.\nThe binding assays utilized 15 ug of A2A membrane (human recombinant A2A membrane, rat striatal membrane, or PC 12 cell membrane) that had been treated with adenosine deaminase and 50 mM Tris-EDTA buffer (pH=7.4) followed by mixing 2 μL of serially diluted DMSO stock solution of the compounds of this invention at concentrations ranging from 10 μM to 0.1 nM or the control received 2 μL of DMSO alone, then the tritiated antagonist 3-(3-hydroxypropyl)-7-methyl-8-(m-methoxystyryl)-1-propargylxanthine (3H-MSX-2) in Tris-EDTA buffer (50 mM Tris, 1 mM EDTA, 10 mM MgCl2, pH of 7.4) was added to achieve a final concentration of 2 nM. After incubation at 23° C. for 2 hours, the solutions were filtered using a membrane harvester with multiple washing of the membranes (3×). The filter plates were counted in scintillation cocktail affording the amount of displacement ^3H-MSX-2 by the competitive binding compositions of this invention. Radioligand binding data was analyzed using GraphPad Prism version 4.0 (San Diego, Calif.). […]", "units": {"Ki": "nM"}, "values": [{"smiles": "CCn1c(=O)[nH]c2sc(/C=C/c3cccnc3)c(C)c2c1=O", "note": "[XII, 6-((1E)-2-(3-pyridyl)vinyl)-3-ethyl-5-methyl-1,3-dihydrothiopheno[2,3-d]pyrimidine-2,4-dione]", "Ki": 33}, {"smiles": "CCn1c(=O)[nH]c2sc(/C=C/c3ccccc3)c(C)c2c1=O", "note": "[III, 6-((1E)-2-phenylvinyl)-3-ethyl-5-methyl-1,3-dihydrothiopheno[2,3-d]pyrimidine-2,4-dione]", "Ki": 171}, {"smiles": "CCn1c(=O)[nH]c2sc(/C=C/c3cccc(F)c3)c(C)c2c1=O", "note": "[VI, 6-[(1E)-2-(3-fluorophenyl)vinyl]-3-ethyl-5-methyl-1,3-dihydrothiopheno[2,3-d]pyrimidine-2,4-dione]", "Ki": 242}, {"smiles": "CCn1c(=O)c2c(C)c(/C=C/c3ccc(OC)c(OC)c3)sc2n(C)c1=O", "note": "[I, 6-[(1E)-2-(3,4-dimethoxyphenyl)vinyl]-3-ethyl-1,5-dimethyl-1,3-dihydrothiopheno[2,3-d]pyrimidine-2,4-dione]", "Ki": 220}, {"smiles": "CCn1c(=O)[nH]c2sc(/C=C/c3ccc(C)cc3)c(C)c2c1=O", "note": "[XIII, 6-[(1E)-2-(4-methylphenyl)vinyl]-3-ethyl-5-methyl-1,3-dihydrothiopheno[2,3-d]pyrimidine-2,4-dione]", "Ki": 182}, {"smiles": "CCn1c(=O)[nH]c2sc(/C=C/c3cccc(OC)c3)c(C)c2c1=O", "note": "[XVI, 6-[(1E)-2-(3-methoxyphenyl)vinyl]-3-ethyl-5-methyl-1,3-dihydrothiopheno[2,3-d]pyrimidine-2,4-dione]", "Ki": 104}, {"smiles": "CCn1c(=O)[nH]c2sc(/C=C/c3ccccc3F)c(C)c2c1=O", "note": "[XV, 6-[(1E)-2-(2-fluorophenyl)vinyl]-3-ethyl-5-methyl-1,3-dihydrothiopheno[2,3-d]pyrimidine-2,4-dione]", "Ki": 170}, {"smiles": "CCn1c(=O)[nH]c2sc(/C=C/c3ccc(Cl)cc3)c(C)c2c1=O", "note": "[VII, 6-[(1E)-2-(4-chlorophenyl)vinyl]-3-ethyl-5-methyl-1,3-dihydrothiopheno[2,3-d]pyrimidine-2,4-dione]", "Ki": 320}, {"smiles": "COc1ccc(/C=C/c2sc3[nH]c(=O)n(CC(C)C)c(=O)c3c2C)cc1OC", "note": "[XI, 6-[(1E)-2-(3,4-dimethoxyphenyl)vinyl]-5-methyl-3-(2-methylpropyl)-1,3-dihydrothiopheno[2,3-d]pyrimidine-2,4-dione]", "Ki": 277}, {"smiles": "CCn1c(=O)[nH]c2sc(/C=C/c3ccc(OC)c(OC)c3)c(C)c2c1=O", "note": "[X, 6-[(1E)-2-(3,4-dimethoxyphenyl)vinyl]-3-ethyl-5-methyl-1,3-dihydrothiopheno[2,3-d]pyrimidine-2,4-dione]", "Ki": 75}, {"smiles": "CCn1c(=O)[nH]c2sc(/C=C/c3ccc(-c4ccccc4)cc3)c(C)c2c1=O", "note": "[VIII, 6-[(1E)-2-(4-phenylphenyl)vinyl]-3-ethyl-5-methyl-1,3-dihydrothiopheno[2,3-d]pyrimidine-2,4-dione]", "Ki": 776}, {"smiles": "CCn1c(=O)[nH]c2sc(/C=C/c3cc(OC)cc(OC)c3)c(C)c2c1=O", "note": "[XVIII, 6-[(1E)-2-(3,5-dimethoxyphenyl)vinyl]-3-ethyl-5-methyl-1,3-dihydrothiopheno[2,3-d]pyrimidine-2,4-dione]", "Ki": 96}, {"smiles": "CCn1c(=O)c2c(C)c(/C=C/c3ccc(OC)c(OC)c3)sc2n(COCc2ccccc2)c1=O", "note": "[II, 6-[(1E)-2-(3,4-dimethoxyphenyl)vinyl]-3-ethyl-5-methyl-1-[(phenylmethoxy)methyl]-1,3-dihydrothiopheno[2,3-d]pyrimidine-2,4-dione]", "Ki": 866}, {"smiles": "CCn1c(=O)[nH]c2sc(/C=C/c3ccc(F)cc3)c(C)c2c1=O", "note": "[IV, 6-[(1E)-2-(4-fluorophenyl)vinyl]-3-ethyl-5-methyl-1,3-dihydrothiopheno[2,3-d]pyrimidine-2,4-dione]", "Ki": 189}, {"smiles": "C#CCn1c(=O)c2c(C)c(/C=C/c3ccccc3)sc2n(C)c1=O", "note": "[V, 6-((1E)-2-phenylvinyl)-1,5-dimethyl-3-prop-2-ynyl-1,3-dihydrothiopheno[2,3-d]pyrimidine-2,4-dione]", "Ki": 390}, {"smiles": "CCn1c(=O)[nH]c2sc(/C=C/c3ccccc3OC)c(C)c2c1=O", "note": "[XVII, 6-[(1E)-2-(2-methoxyphenyl)vinyl]-3-ethyl-5-methyl-1,3-dihydrothiopheno[2,3-d]pyrimidine-2,4-dione]", "Ki": 38}, {"smiles": "CCn1c(=O)[nH]c2sc(/C=C/c3ccc(OC)cc3)c(C)c2c1=O", "note": "[XIV, 6-[(1E)-2-(4-methoxyphenyl)vinyl]-3-ethyl-5-methyl-1,3-dihydrothiopheno[2,3-d]pyrimidine-2,4-dione]", "Ki": 119}, {"smiles": "CCn1c(=O)[nH]c2sc(/C=C/c3ccc(C(F)(F)F)cc3)c(C)c2c1=O", "note": "[IX, 6-{(1E)-2-[4-(trifluoromethyl)phenyl]vinyl}-3-ethyl-5-methyl-1,3-dihydrothiopheno[2,3-d]pyrimidine-2,4-dione]", "Ki": 674}]}]}
